Measured values: patent US20170290774A1, “NEUROKININ-1 RECEPTOR ANTAGONIST COMPOSITION FOR TREATMENT OF DISEASES AND CONDITIONS OF THE RESPIRATORY TRACT” (PLUS VITECH, S.L., priority 2014, published 2017)

Legend:
[1] = Saturation concentration of NK1 receptor antagonists in olive oil; assay type: physicochemical; conditions: 25° C.
Experimental: Each of said mixtures was continuously and gently stirred for 10 minutes at ambient temperature (25° C.) and then maintained at rest for 60 minutes. The saturation concentration was considered to be that which was immediately lower in the aforementioned series than a concentration where deposition was observed, but in which no deposition of the active ingredient was observed.

MMP-14 = assay: Immunohistochemistry of MMP-14 in respiratory tract tissue of sodium hypochlorite aerosol-treated rabbits; assay type: in vivo, New Zealand albino rabbits
From the text: It is known that the factors TGF-α, TGF-β 1, TGF-β 2, TGF-β 3, SPARC, MMP-3; MMP-7, MMP-9, MMP-11, MMP-13 and MMP-14, TGF-β, NF-kB, EGF, MMP-9, VEGF and TNF-α which are produced by lung cells (pneumocytes, fibroblasts and vascular endothelial cells) and inflammatory cells (macrophages, lymphocytes and polymorphonuclear leukocytes) are involved in the pathophysiology and development of said respiratory tract diseases. […] Herein, 27 New Zealand albino rabbits (New Zealand White Rabbit) with an initial average weight about 3 kg were used in this example. All subjects were administered an aerosol of a solution consisting of a mixture of water and sodium hypochlorite (35 g sodium hypochlorite per liter of water) at a rate of 5 mL of said solution by inhalation three times a day for 7 days (days 1 to 7 of experimentation). Subsequently, from days 3 to 7, a group of 3 rabbits (Group 1) was administered an oral dose of 10 mg/kg body weight per day, another group of 3 rabbits (Group 2) was administered an oral dose of 40 mg/kg body weight per day, a third group (Group 3) was administered an oral dose of 80 mg/kg body weight per day and a fourth group (Group 4) was administered an oral dose of 100 mg/kg body weight per day. […] This mixture was administered as an aerosol by inhalation, also from days 3 to 7, to a group of 3 rabbits (group 5) at a dose of 0.05 mg/kg body weight per day, to another group of three rabbits (Group 6) at a dose of 0.1 mg/kg body weight per day, to another group of three rabbits (Group 7) at a dose of 0.2 mg/kg body weight per day and to another group of three rabbits (Group 8) at a dose of 0.4 mg/kg body weight per day. A placebo consisting only of olive oil was administered from days 3 to 7 to a control group of 3 rabbits (placebo group). In parallel, 3 rabbits were kept under identical conditions but were not administered any treatment nor the aforementioned sodium hypochlorite solution (control group). […] On day 7 of the experiment all animals were euthanized and necropsied. […] Samples were taken at the peripheral level of the lung parenchyma, just below the pleural surface. Tissue samples were also taken from the nasal cavity, pharynx, larynx and bronchi. Immunohistochemistry studies were performed for all samples to evaluate the levels of the markers TGF-α, TGF-β 1, TGF-β 2, TGF-β 3 SPARC, MMP-3; MMP-7, MMP-9, MMP-11, MMP-14, TGF-β, TNF-α and VEGF. In said immunohistochemistry studies, a sample of each sample was dehydrated by treatment with increasing concentrations of ethanol and finally xylene. Subsequently said dried samples were embedded in paraffin, thus creating a block. Said paraffin blocks were cut on a microtome to a thickness of 5 μm, and the resulting sections (slices) were placed on slides suitable for conducting immunohistochemistry techniques. Subsequently, the sections were deparaffinised by immersion in xylene and then rehydrated through immersion in a series of solutions containing decreasing concentrations of ethanol and, finally, water. […] The samples were then allowed to cool to room temperature over 10 minutes. Endogenous peroxidase activity was blocked by treatment with 3% hydrogen peroxide over 30 min at room temperature. […] In order to verify the expression of NK1 receptors, the cell samples were incubated in the presence of anti-NK1 antibodies ([…], Sigma-Aldrich) diluted 1:1000 at 4° C. overnight. After this time they were washed in 0.05M Tris buffer at room temperature. Subsequently, Envision System-HRP (Dako) reagents were added for 30 min at room temperature. Once this time had expired, the samples were again washed with 0.05 M Tris buffer, and immunoreactivity was visualized by light microscopy with a chromogenic solution with 3,3'-diaminobenzidine (DAB+; Dako, USA). In order to differentiate the cell nuclei, these were lightly stained with haematoxylin. Samples that were not incubated with the primary antibody, but wherein this was replaced by a non-immune serum were used as negative controls. […]

CYP3A4 = target: T1, CYP3A4 (Homo sapiens, UniProt P08684); conditions: human hepatic microsomes; cited from earlier work
T1 construct: In vitro studies in which human hepatic microsomes were used; from tissue; host or cells: human hepatic (liver) microsomes
T1 sequence (P08684 whole entry): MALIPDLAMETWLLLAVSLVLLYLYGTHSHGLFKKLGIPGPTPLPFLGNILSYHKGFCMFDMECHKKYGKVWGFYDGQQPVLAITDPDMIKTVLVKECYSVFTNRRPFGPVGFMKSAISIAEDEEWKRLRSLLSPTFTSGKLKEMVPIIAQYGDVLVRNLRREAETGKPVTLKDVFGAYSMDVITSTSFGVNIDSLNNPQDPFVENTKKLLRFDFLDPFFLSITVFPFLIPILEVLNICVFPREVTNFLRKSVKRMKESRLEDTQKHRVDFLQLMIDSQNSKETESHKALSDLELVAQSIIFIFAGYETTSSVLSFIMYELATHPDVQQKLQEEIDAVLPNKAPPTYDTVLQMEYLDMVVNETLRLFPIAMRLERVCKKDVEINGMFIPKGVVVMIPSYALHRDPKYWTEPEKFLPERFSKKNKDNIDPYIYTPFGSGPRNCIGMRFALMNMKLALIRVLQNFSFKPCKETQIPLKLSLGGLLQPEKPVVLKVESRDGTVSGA

C[C@@H](OC1OCCN(Cc2nc(=O)[nH][nH]2)C1c1ccc(F)cc1)c1cc(C(F)(F)F)cc(C(F)(F)F)c1 (stereo in doubt) [Aprepitant, 5-([(2R,3S)-2-((R)-1-[3,5-bis(trifluoromethyl)phenyl]ethoxy)-3-(4-fluorophenyl)morpholino]methyl)-1H-1,2,4-triazol-3(2H)-one]
Saturation concentration [1]: 60 nM
Percent increase in MMP-14 with respect to the control group (MMP-14; bronchial tissue, Group 1, oral 10 mg/kg per day): 567.32%
Percent increase in MMP-14 with respect to the control group (MMP-14; bronchial tissue, Group 2, oral 40 mg/kg per day): 434.45%
Percent increase in MMP-14 with respect to the control group (MMP-14; bronchial tissue, Group 3, oral 80 mg/kg per day): 325.56%
Percent increase in MMP-14 with respect to the control group (MMP-14; bronchial tissue, Group 4, oral 100 mg/kg per day): 312.56%
% Med G5/C: percent increase in marker MMP-14 with respect to the control group (MMP-14; bronchial tissue, Group 5): 458.45%
% Med G6/C: percent increase in marker MMP-14 with respect to the control group (MMP-14; bronchial tissue, Group 6): 342.32%
% Med G7/C: percent increase in marker MMP-14 with respect to the control group (MMP-14; bronchial tissue, Group 7): 246.47%
% Med G8/C: percent increase in marker MMP-14 with respect to the control group (MMP-14; bronchial tissue, Group 8): 164.63%
Percent increase in MMP-14 with respect to the control group (MMP-14; laryngeal tissue, Group 1, oral 10 mg/kg per day): 678.45%
Percent increase in MMP-14 with respect to the control group (MMP-14; laryngeal tissue, Group 2, oral 40 mg/kg per day): 567.34%
Percent increase in MMP-14 with respect to the control group (MMP-14; laryngeal tissue, Group 3, oral 80 mg/kg per day): 459.43%
Percent increase in MMP-14 with respect to the control group (MMP-14; laryngeal tissue, Group 4, oral 100 mg/kg per day): 387.34%
Percent increase in MMP-14 with respect to the control group (MMP-14; laryngeal tissue, Group 5, inhalation 0.05 mg/kg per day): 639.34%
Percent increase in MMP-14 with respect to the control group (MMP-14; laryngeal tissue, Group 6, inhalation 0.1 mg/kg per day): 543.12%
Percent increase in MMP-14 with respect to the control group (MMP-14; laryngeal tissue, Group 7, inhalation 0.2 mg/kg per day): 342.23%
Percent increase in MMP-14 with respect to the control group (MMP-14; laryngeal tissue, Group 8, inhalation 0.4 mg/kg per day): 201.28%
Percent increase in MMP-14 with respect to the control group (MMP-14; lung tissue, Group 1, oral 10 mg/kg per day): 683.47%
Percent increase in MMP-14 with respect to the control group (MMP-14; lung tissue, Group 2, oral 40 mg/kg per day): 569.37%
Percent increase in MMP-14 with respect to the control group (MMP-14; lung tissue, Group 3, oral 80 mg/kg per day): 441.85%
Percent increase in MMP-14 with respect to the control group (MMP-14; lung tissue, Group 4, oral 100 mg/kg per day): 354.84%
Percent increase in MMP-14 with respect to the control group (MMP-14; lung tissue, Group 5, inhalation 0.05 mg/kg per day): 769.70%
Percent increase in MMP-14 with respect to the control group (MMP-14; lung tissue, Group 6, inhalation 0.1 mg/kg per day): 323.25%
Percent increase in MMP-14 with respect to the control group (MMP-14; lung tissue, Group 7, inhalation 0.2 mg/kg per day): 184.50%
Percent increase in MMP-14 with respect to the control group (MMP-14; lung tissue, Group 8, inhalation 0.4 mg/kg per day): 153.36%
Percent increase in MMP-14 with respect to the control group (MMP-14; nasal cavity tissue, Group 1, oral 10 mg/kg per day): 1,016.51%
Percent increase in MMP-14 with respect to the control group (MMP-14; nasal cavity tissue, Group 2, oral 40 mg/kg per day): 680.45%
Percent increase in MMP-14 with respect to the control group (MMP-14; nasal cavity tissue, Group 3, oral 80 mg/kg per day): 412.64%
Percent increase in MMP-14 with respect to the control group (MMP-14; nasal cavity tissue, Group 4, oral 100 mg/kg per day): 317.68%
Percent increase in MMP-14 with respect to the control group (MMP-14; nasal cavity tissue, Group 5, inhalation 0.05 mg/kg per day): 1,190.13%
Percent increase in MMP-14 with respect to the control group (MMP-14; nasal cavity tissue, Group 6, inhalation 0.1 mg/kg per day): 510.81%
Percent increase in MMP-14 with respect to the control group (MMP-14; nasal cavity tissue, Group 7, inhalation 0.2 mg/kg per day): 206.80%
Percent increase in MMP-14 with respect to the control group (MMP-14; nasal cavity tissue, Group 8, inhalation 0.4 mg/kg per day): 149.00%
Percent increase in MMP-14 with respect to the control group (MMP-14; pharyngeal tissue, Group 1, oral 10 mg/kg per day): 1,148.43%
Percent increase in MMP-14 with respect to the control group (MMP-14; pharyngeal tissue, Group 2, oral 40 mg/kg per day): 980.64%
Percent increase in MMP-14 with respect to the control group (MMP-14; pharyngeal tissue, Group 3, oral 80 mg/kg per day): 762.45%
Percent increase in MMP-14 with respect to the control group (MMP-14; pharyngeal tissue, Group 4, oral 100 mg/kg per day): 560.45%
Percent increase in MMP-14 with respect to the control group (MMP-14; pharyngeal tissue, Group 5, inhalation 0.05 mg/kg per day): 1,091.23%
Percent increase in MMP-14 with respect to the control group (MMP-14; pharyngeal tissue, Group 6, inhalation 0.1 mg/kg per day): 709.21%
Percent increase in MMP-14 with respect to the control group (MMP-14; pharyngeal tissue, Group 7, inhalation 0.2 mg/kg per day): 245.45%
Percent increase in MMP-14 with respect to the control group (MMP-14; pharyngeal tissue, Group 8, inhalation 0.4 mg/kg per day): 135.00%
metabolising enzyme (CYP3A4): principally metabolized by CYP3A4
